The values below come from patent US9567301B2, “Pyrrol-1-yl benzoic acid derivatives useful as myc inhibitors” (Whitehead Institute for Biomedical Research, priority 2012, dated 2017).

For the experiment, the target named is c-Myc/Max/Ebox DNA (Homo sapiens, UniProt P01106). As to the kind of experiment: c-Myc/Max/Ebox DNA AlphaScreen assay. Also on record: An exemplary assay uses full-length human c-Myc and Max proteins; his6 (cleaved yes); made in house. It counts as binding. The note with it: c-Myc/Max/Ebox DNA AlphaScreen; NA: inactive under assay conditions; read-out: Biochemical IC50. On the procedure: This protocol was used to generate the biochemical data in Table 2 and FIG. 11. The primary AlphaScreen assay is amenable to 384-well and 1536-well plate formats for HTS. Human his6-c-Myc and his6-Max were used with biotinylated DNA containing a single Ebox sequence (biotin[…]) purchased from MWG Operon. Free c-Myc was generated from his6-c-Myc through thrombin cleavage of the his6 tag. For 384-well plate assays, 10 μL of a 2× solution of free c-Myc (25 nM final), Ni++-coated Acceptor Bead (25 μg/ml final), and biotinylated Ebox oligo (10 nM final) were added to 384-well plates with a Biotek EL406 liquid handler. 100 nL of compounds from stock plates were added by pin transfer using a Janus Workstation (PerkinElmer), allowing the compounds to interact with c-Myc prior to c-Myc binding with Max. In the current assay, DMSO was not allowed to exceed 2% v/v of the assay. 10 μl of 2× master mix containing streptavidin-coated donor beads (25 μg/ml final) and his6-Max (1.25 nM final) were added. AlphaScreen measurements were performed on an Envision 2104 (PerkinElmer) utilizing the manufacturer's protocol. The assay can also be performed in 1536-plate format with 8 μL total volume using two 4 μL additions (instead of […] and 10 μL respectively).
Sequence of c-Myc/Max/Ebox DNA (P01106 16-454): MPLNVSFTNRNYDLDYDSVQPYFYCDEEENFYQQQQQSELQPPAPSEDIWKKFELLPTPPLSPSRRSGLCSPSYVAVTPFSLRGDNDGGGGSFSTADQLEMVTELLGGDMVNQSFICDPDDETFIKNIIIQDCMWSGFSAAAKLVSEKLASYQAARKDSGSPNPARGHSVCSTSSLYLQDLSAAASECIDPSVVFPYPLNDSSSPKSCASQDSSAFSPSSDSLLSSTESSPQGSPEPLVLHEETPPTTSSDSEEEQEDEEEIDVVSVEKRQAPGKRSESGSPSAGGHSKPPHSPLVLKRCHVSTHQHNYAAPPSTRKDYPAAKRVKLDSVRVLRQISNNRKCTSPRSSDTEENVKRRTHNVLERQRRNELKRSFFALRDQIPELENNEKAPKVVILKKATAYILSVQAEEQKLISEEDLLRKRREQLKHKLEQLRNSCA
Assays are performed with minor modifications from the manufacturer's protocol (PerkinElmer). Both master mixes were made in room temperature assay buffer (50 mM HEPES, 150 mM NaCl, 0.2% w/v BSA, 0.02% w/v Tween20, 40 μg/ml glycogen, 500 μM DTT, pH 8.0, DTT and glycogen added fresh). Alpha beads were added to respective master solutions and wrapped in foil. All subsequent steps were performed in low light conditions. Solution 1: 2× solution of components with final concentrations of cMyc (25 nM), Ni-coated Acceptor Bead (25 μg/ml), and biotinylated Ebox oligo (10 nM). Solution 2: 2× solution of streptavidin-coated donor beads (25 μg/ml final) and his6-Max (1.25 nM final). […] Solution 1 were added to 384-well plate (AlphaPlate-384, PerkinElmer) with Biotek EL406 liquid handler and the plates were centrifuged at 1000 rpm for 1 minute. 100 nL of compounds from stock plates were added by pin transfer using a Janus Workstation. 10 μL Solution 2 were added with the liquid handler. Plates were sealed with foil to block light exposure and prevent evaporation. Plates were centrifuged at 1000 rpm for 1 minute followed by 2 hour incubation. AlphaScreen measurements were performed on an Envision 2104 utilizing the manufacturer's protocol. Excitation was at 680 nm for donor bead release of singlet oxygen and emission was read with a bandpass filter from 520-620 nm. Glycogen: Roche Diagnostics #10901393001. Plate 1536: Perkin Elmer, 6004350. Plate 384: Perkin Elmer, 6005350. Nickel-His Alpha Beads: 6760619R.

As usually defined, the IC50 is the concentration at which inhibition is half-maximal.

The structures appear in SMILES notation.

Turning to `Cc1ccc(C)n1-c1cccc(C(=O)O)c1` [Compound 2], the IC50 turned out to be 74.5 µM. The same measure for `Cc1ccc(C)n1-c1ccc(C(=O)O)cc1` [Compound 3]: 287 µM; for `Cc1ccc(C)n1-c1cc(C(=O)O)ccc1O` [Compound 4]: 34.1 µM. The same measure for `Cc1ccc(C)n1-c1ccc(C(=O)O)c(O)c1` [Compound 5]: 4.29 µM; for `COC(=O)c1ccc(-n2c(C)ccc2C)cc1O` [Compound 18]: 1.54 µM. For `O=C(O)c1ccccc1-n1c(-c2ccccc2)cc2c1CCCC2=O` [Compound 29], the IC50 stood at 252 µM. For `O=C(O)c1cc(-n2cccc2)ccc1N1CCOCC1` [Compound 30], the half-maximal inhibitory concentration (IC50) amounted to 273 µM. In the case of `CCCC(=O)Nc1ccc(N2CCCCCC2)cc1C(=O)O` [Compound 31], the IC50 came to 172 µM. Turning to `CCCCC(=O)Nc1ccc(N2CCC(C)CC2)c(C(=O)O)c1` [Compound 32], the concentration for half-maximal inhibition (IC50) is 881 µM. Turning to `CC(=O)Nc1ccc(N2CCCCCC2)c(C(=O)O)c1` [Compound 33], the IC50 was determined as 171 µM. With `CC(=O)Nc1ccc(N2CCCC(C)C2)c(C(=O)O)c1` (stereo not drawn) [Compound 34], the IC50 came out at 191 µM. The value for `Cc1ccc(C)n1-c1ccc(Cl)cc1C(=O)O` [Compound 35] was 31.3 µM; that for `Cc1ccc(C)n1-c1ccc(Br)cc1C(=O)O` [Compound 36] was 64.7 µM; that for `COc1cc(C(=O)O)c(-n2c(C)ccc2C)cc1OC` [Compound 37] was 62.7 µM. For the compound `Cc1ccc(C)n1-c1cc(Cl)ccc1C(=O)O` [Compound 38], the IC50 was 63.7 µM. The same measure for `CC(=O)Nc1ccc(-n2c(C)ccc2C)c(C(=O)O)c1` [Compound 40]: 34.4 µM; for `Cc1ccc(-c2ccccc2)n1-c1ccccc1C(=O)O` [Compound 41]: 324 µM; for `Cc1cc2c(n1-c1cccc(C(=O)O)c1)CC(C)(C)CC2=O` [Compound 42]: 697 µM. The same measure for `CC1(C)CC(=O)c2cc(CC(=O)O)n(-c3cccc(C(=O)O)c3)c2C1` [Compound 43]: 197 µM; for `Cc1ccc(C(=O)O)cc1-n1c(C)cc(CN2CCC(N)(C(=O)O)C2)c1C` (stereo not drawn) [Compound 44]: 194 µM; for `Cc1ccc(C(=O)O)cc1-n1c(C)cc(CN2C[C@H](N(C)C)C[C@H]2CO)c1C` [Compound 45]: 115 µM. The same measure for `Cc1cc(/C=C2\C(=O)NC(=O)N(C)C2=O)c(C)n1-c1cccc(C(=O)O)c1` [Compound 46]: 76.8 µM; for `CC(=O)c1cc(C)n(-c2ccc(C(=O)O)cc2)c1C` [Compound 47]: 166 µM; for `Cc1cc2c(n1-c1ccc(C(=O)O)cc1)CCCCC2` [Compound 48]: 51.8 µM. `Cc1c(-c2ccccc2)c2c(n1-c1ccc(C(=O)O)cc1)CCCC2` [Compound 49]: the IC50 was 42 µM. The value for `Cc1cc2c(n1-c1ccc(C(=O)O)cc1)CC(C)(C)CC2=O` [Compound 50] was 446 µM; that for `CC1(C)CC(=O)c2cc(CC(=O)O)n(-c3ccc(C(=O)O)cc3)c2C1` [Compound 51] was 523 µM; that for `Cc1cc(/C=C(\C#N)C(=O)Nc2ccc(O)cc2)c(C)n1-c1ccccc1C(=O)O` [Compound 52] was 36.2 µM. Take `Cc1ccccc1N1C(=O)NC(=O)/C(=C\c2cc(C)n(-c3ccccc3C(=O)O)c2C)C1=O` [Compound 53]: the IC50 came to 2510 µM. The value for `Cc1cc(/C=N/NC(N)=S)c(C)n1-c1ccccc1C(=O)O` [Compound 54] was 16.3 µM.

Consider `Cc1cc(/C=C2\C(=O)NC(=O)N(c3ccc(F)cc3)C2=O)c(C)n1-c1ccccc1C(=O)O` [Compound 55], for which the IC50 worked out at 58.5 µM.

`Cc1cc(/C=C2\SC(=O)N(C)C2=O)c(C)n1-c1ccccc1C(=O)O` [Compound 56]: the IC50 was found to be 103 µM. For `Cc1cc(/C=C2\SC(=O)N(C)C2=O)c(C)n1-c1ccccc1C(=O)O` [Compound 57], the IC50 was found to be 92.2 µM.

For the compound `Cc1cc(/C=C(/C#N)C(=O)NCCc2c[nH]c3ccccc23)c(C)n1-c1ccccc1C(=O)O` [Compound 58], the IC50 came to 135 µM.

Turning to `Cc1cc(/C=C(/C#N)c2nc3ccccc3[nH]2)c(C)n1-c1ccccc1C(=O)O` [Compound 59], the IC50 was 125 µM.

`Cc1cccc(C)c1-c1ccccc1C(=O)O` [Compound 60]: the IC50 was found to be 89.1 µM. The value for `Cc1cc(C(=O)N/N=C/c2ccccc2)c(C)n1-c1ccccc1C(=O)O` [Compound 61] was 49.2 µM; that for `Cc1ccc(C)n1-c1cc(C(=O)NCCc2ccc(O)c(O)c2)ccc1C(=O)O` [Compound 73] was 33.4 µM; that for `Cc1ccc(C)n1-c1cc(C(=O)N/N=C/c2c[nH]cn2)ccc1C(=O)O` [Compound 78] was 1.75 µM. The same measure for `Cc1ccc(C)n1-c1cc(C(=O)N/N=C/c2cccc(B(O)O)c2)ccc1C(=O)O` [Compound 82]: 2.95 µM; for `Cc1ccc(C)n1-c1cc(C(=O)N/N=C/c2ccc(O)cc2)ccc1C(=O)O` [Compound 83]: 6.85 µM; for `Cc1ccc(C)n1-c1cc(C(=O)N/N=C/c2ccc(S(=O)(=O)O)o2)ccc1C(=O)O` [Compound 84]: 0.534 µM. The value for `Cc1ccc(C)n1-c1cc(C(=O)N/N=C/c2cccnc2)ccc1C(=O)O` [Compound 86] was 5.97 µM.

Turning to `Cc1ccc(C)n1-c1cc(C(=O)N/N=C/c2c[nH]c3ccc(F)cc23)ccc1C(=O)O` [Compound 95], the IC50 was found to be 23.3 µM. Take `Cc1ccc(C)n1-c1cc(C(=O)N/N=C/c2ccc(-c3cncnc3)cc2)ccc1C(=O)O` [Compound 102]: the IC50 worked out at 26.5 µM.

With `Cc1ccc(C)n1-c1cc(C(=O)N/N=C/c2ccc3nccnc3c2)ccc1C(=O)O` [Compound 104], the 50% inhibitory concentration (IC50) came to 7.11 µM. The value for `Cc1ccc(C)n1-c1cc(C(=O)N/N=C\c2ccc(O)c(F)c2)ccc1C(=O)O` [Compound 117] was 6.52 µM.

With `Cc1ccc(C)n1-c1cc(C(=O)N/N=C\c2cc(F)c(C(=O)O)c(F)c2)ccc1C(=O)O` [Compound 118], the IC50 came out at 0.48 µM. The value for `Cc1ccc(C)n1-c1cc(C(=O)N/N=C/c2cccc(C(=O)O)c2)ccc1C(=O)O` [Compound 120] was 0.393 µM; that for `Cc1ccc(C)n1-c1cc(C(=O)N/N=C/c2ccccc2)ccc1C(=O)O` [Compound 121] was 7.69 µM; that for `Cc1ccc(C)n1-c1cc(C(=O)N/N=C/c2ccc(C(=O)O)o2)ccc1C(=O)O` [Compound 124] was 0.708 µM. The same measure for `Cc1ccc(C)n1-c1cc(C(=O)N/N=C/c2cc(C(=O)O)ccc2F)ccc1C(=O)O` [Compound 125]: 1.25 µM. The value for `Cc1c2ccccc2c(C)n1-c1ccccc1C(=O)O` [Compound 137] was 57.8 µM; that for `CN(C)c1ccc(/N=N/c2ccccc2C(=O)O)cc1` [Compound 154] was 43.4 µM. For the compound `CN1CCN(c2ccccc2C(=O)O)CC1` [Compound 156], the IC50 was 346 µM.

For `Cc1ccc(C)n1-c1cc(C(=O)N2CCc3ccc(C(=O)O)cc3C2)ccc1C(=O)O` [Compound 165], the IC50 amounted to 0.343 µM. Regarding `Cc1ccc(C)n1-c1cc(C(=O)NNC(=O)c2cccc(C(=O)O)c2)ccc1C(=O)O` [Compound 166], the concentration for half-maximal inhibition (IC50) was found to be 1.89 µM.
